{"source": "patent US20060275333A1", "about": "“Composition with beads for treatment of contact dermatitis” (Humco Holding Group, Inc., priority 2005, published 2006)", "key": {"IL-1α": {"test_system": "IL-1α", "experiment": "IL-1α release from Epiderm artificial skin, ELISA of culture media", "type": "cell-based, human", "text": "When urushiol is applied to human skin it can elicit the synthesis and release of several key inflammatory cytokines, including IL-1α, IL-1β, IL-6, and IL-8. Release of these cytokines also has been noted in cultured keratinocyte models after the application of urushiol. IL-1α and IL-6 are synthesized and stored in keratinocytes and have been identified as mediators of skin irritation and inflammation. Release of these two cytokines can be measured directly in tissue culture media by a calorimetric enzyme linked immunosorbent assay (ELISA). In such measurements, antibodies covalently linked to a solid support will bind any IL-1α or IL-6 present in spent culture media samples. […] Upon addition of an appropriate color substrate the acetylcholinesterase enzyme will generate a colored end product that can be measured spectrophotometrically. […]\nThe Epidermic tissue samples were stored at 2-8° C. until used. […] The collected culture media were stored at −75±5° C. until analyzed for IL-1α and IL-6 levels. The IL-1α and IL-6 levels were determined by comparison with a standard curve generated from samples having known concentrations of these two cytokines. […] Absorbance values for the test materials and untreated samples were then used to estimate the amount of cytokine present in each sample."}, "[1]": {"conditions": "exposed to 50 micrograms of purified urushiol; cited from earlier work"}, "IL-6": {"test_system": "IL-6", "experiment": "IL-6 release from Epiderm artificial skin, ELISA of culture media", "type": "cell-based, human", "text": "When urushiol is applied to human skin it can elicit the synthesis and release of several key inflammatory cytokines, including IL-1α, IL-1β, IL-6, and IL-8. Release of these cytokines also has been noted in cultured keratinocyte models after the application of urushiol. IL-1α and IL-6 are synthesized and stored in keratinocytes and have been identified as mediators of skin irritation and inflammation. Release of these two cytokines can be measured directly in tissue culture media by a calorimetric enzyme linked immunosorbent assay (ELISA). In such measurements, antibodies covalently linked to a solid support will bind any IL-1α or IL-6 present in spent culture media samples. A second antibody that is covalently attached to an acetylcholinesterase enzyme will in turn detect the bound cytokines. Upon addition of an appropriate color substrate the acetylcholinesterase enzyme will generate a colored end product that can be measured spectrophotometrically.\nTesting of the invention herein was conducted using an artificial skin product designed for toxicity testing and sold under the name Epiderm® by Mat Tek Corporation of Ashland, Massachusetts. This artificial skin product consists of normal human-derived epidermal keratinocytes that have been cultured to form a multilayered, highly differentiated model of the human epidermis. […] Markers of mature epidermis specific differentiation such as profilaggrin, the K1/K10 cytokeratin pair, involucrin, and type I epidermal transglutaminase have been localized in this product. The product is also mitotically and metabolically active.\nThe Epidermic tissue samples were stored at 2-8° C. until used. The analyses were conducted with an ELISA test kit from Cayman Chemicals of Ann Arbor, Michigan, with all buffers and reagents being prepared according to the kit's instructions and allowed to come to room temperature. Prior to use, the tissues were removed from the agarose shipping tray and placed into a 6-well plate containing 1.0 ml of assay medium from the test kit, at 37±2° C. The tissues were allowed to incubate for one hour at 37±2° C. and 5±1% CO2. After this initial incubation, the assay medium was replaced with 1 ml of fresh medium at 37±2° C. […] The collected culture media were stored at −75±5° C. until analyzed for IL-1α and IL-6 levels. The IL-1α and IL-6 levels were determined by comparison with a standard curve generated from samples having known concentrations of these two cytokines. […] Absorbance values for the test materials and untreated samples were then used to estimate the amount of cytokine present in each sample."}, "[2]": {"test_system": "Epiderm normal human-derived epidermal keratinocytes", "experiment": "MTT assay of tissue viability of Epiderm artificial skin", "type": "cell-based", "conditions": "after the 48-hour time period; untreated tissues = 100%; same test materials", "protocol": "The efficacy of nonylphenol ethoxylate on urushiol-induced dermatitis was evaluated by ELISA and MTT techniques. The MTT evaluation was based on a technique first described in Mosmann, T., “Rapid calorimetric assay for cellular growth and survival: application to proliferation and cytotoxicity assays,” J. Immunol. Methods, Dec. 16, 1983, 65(1-2):55-63. The analysis is based on the compound [3-(4,5-dimethylthiazol-2-yl)-2,5-diphenyltetrazolium bromide], commonly referred to as MTT. As reported by Mosmann, mitochondrial dehydrogenase enzyme from viable cells can cleave the tetrazolium rings of the pale yellow MTT and form dark blue formazin crystals. The crystals cannot permeate cell membranes, and thus tend to accumulate within healthy cells. […] The formazin is extracted with isopropanol and measured spectrophotometrically. […]\nEpidermal irritation often is associated with a loss of viable ketinocytes. Therefore, changes in tissue viability after exposure to urushiol and the test were assessed using the MTT assay described above. […] After the extraction, a 200 μl sample from each well of the isopropanol/MTT mixture was transferred to a 96-well plate and the absorbance of the sample was read at 540 nm with a plate reader using 200 μl of isopropanol as the blank.\nThe mean MTT absorbance value for the untreated tissues was calculated and used to represent 100% tissue viability. […]"}, "[3]": {"conditions": "4 Hours, Epiderm tissue, 100 μl test material, Urushiol = control lotion 0.05% 2-deoxy-urushiol, Nonylphenol Ethoxylate = control lotion + 0.2% w/v nonyl phenyl ethoxylate"}}}
{"molecule": "CCCCCCCCCCCCCCCc1cccc(O)c1O", "note": "[Urushiol]", "values": [{"measurement": "IL-1α Accumulation in Cell Culture Media", "setting": "IL-1α; [3]", "result": "16.1 ± 5.2", "unit": "pg/mL"}, {"measurement": "IL-1α Accumulation in Cell Culture Media", "setting": "IL-1α; 12 Hours, same test materials", "result": "32.6 ± 6.3", "unit": "pg/mL"}, {"measurement": "adult Americans who get a rash", "setting": "[1]", "result": "80-90%"}, {"measurement": "IL-6 Accumulation in Cell Culture Media", "setting": "IL-6; [3]", "result": "1.9 ± 0.4", "unit": "pg/mL"}, {"measurement": "IL-6 Accumulation in Cell Culture Media", "setting": "IL-6; 12 Hours, same test materials", "result": "5.1 ± 0.4", "unit": "pg/mL"}, {"measurement": "IL-6 Accumulation in Cell Culture Media", "setting": "IL-6; 24 Hours, same test materials", "result": "9.4 ± 0.3", "unit": "pg/mL"}, {"measurement": "IL-6 Accumulation in Cell Culture Media", "setting": "IL-6; 48 Hours, same test materials", "result": "16.4 ± 1.4", "unit": "pg/mL"}, {"measurement": "Percent Viability (MTT Assay)", "setting": "[2]", "result": "88 ± 5", "unit": "%"}]}
